From PubChem BioAssay (NCI)
“And” between values parts separate entries of the source, which are not always exact repeats. Equal entries are not always repeated.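 Step 1: Grow cells in 96-well plates. Step 2: Expose to compound for 48 hours at 5 concentrations. Step 3: Interpolate endpoints linearly; if unreached, use highest concentration. GI50 = concentration required for 50% inhibition of growth. TGI: concentration producing complete growth inhibition.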

How the values were obtained:
Assay in all cases: DTP human tumour cell line panel, 48 h
[1] = system: MOLT-4 leukemia
[2] = system: NCI-H460 lung
[3] = system: OVCAR-3 ovarian
[4] = system: OVCAR-4 ovarian
[5] = system: OVCAR-8 ovarian
[6] = system: SF-295 CNS
[7] = system: SF-539 CNS
[8] = system: T-47D breast
[9] = system: U251 CNS
[10] = system: SR leukemia

SMILES | TGI [1] [µM] | TGI [2] [µM] | TGI [3] [µM] | TGI [4] | TGI [5] [µM] | TGI [6] [µM] | TGI [7] [µM] | TGI [8] [µM] | TGI [9] [µM] | GI50 [3] [µM] | GI50 [4] [µM] | GI50 [5] [µM] | TGI [10] [µM] | GI50 [1] [µM] | GI50 [2] [µM] | GI50 [6] [µM] | GI50 [10] [µM] | GI50 [8] [µM]
C[C@H](CCC1=NCCN1)[C@H]1CC[C@H]2[C@@H]3CC[C@@H]4C[C@H](O)CC[C@]4(C)[C@H]3C[C@H](O)[C@]12C | 16.1 | 31.2 | 24.5 | 33.6 µM | 28.8 | 29 | 29.5 | 30.6 | 23.7 | – | – | – | – | – | – | – | – | –
CN(C)CC(NC(NCS)C(=O)NCCNc1ccc(NCCNC(=O)C(NCS)NC(CN(C)C)OCCl)c2c1C(=O)c1c(O)ccc(O)c1C2=O)OCCl (stereo unspecified) | – | 0.944 | – | 2.78 µM and 1.3 µM | – | 1.39 | – | 1.62 | 0.0575 | 1.36 | 0.373 | 0.0436 | – | – | – | – | – | –
CS(=O)(=O)O.[Ag] | 5.3 | 49.5 | 88.5 | 9.43 µM | > 100 | > 100 | 32.1 | 5.5 | 30.6 | – | – | – | – | – | – | – | – | –
CC(=O)NC1=C(NCc2ccc(Cl)cc2)C(=O)c2ccccc2C1=O | > 50 | > 50 | 13.1 | 13.4 µM | 14.1 | 47 | 10.5 | – | 24.2 | – | – | – | 29.9 | – | – | – | – | –
COc1ccc2c(c1)-c1nn(CCN(C)C)c3ccc(C(=O)NCCCN(C)CCCNC(=O)c4ccc5c6c(nn5CCN(C)C)-c5cc(OC)ccc5Nc46)c(c13)N2 | 0.0653 | 1.11 | 3.23 | 0.827 µM | 0.977 | 3.38 | 1.56 | – | 0.825 | – | – | – | 3.39 | – | – | – | – | –
O=C(O)C1SCCS1 | > 100 | > 100 | > 100 | > 100 µM | > 100 | > 100 | – | > 100 | > 100 | – | – | – | > 100 | – | – | – | – | –
CC(C)C1=CC23CCC4C(C)(C(=O)O)CCCC4(C)C2CC1C(C(=O)O)C3C(=O)O (stereo unspecified) | > 100 | > 100 | > 100 | > 100 µM | > 100 | > 100 | – | > 100 | > 100 | – | – | – | > 100 | – | – | – | – | –
Cn1ccc(C(=O)NCCCCCNC(=O)c2ccn(C)c(=O)c2O)c(O)c1=O | – | > 100 | – | > 100 µM | > 100 | – | – | > 100 | > 100 | – | – | – | > 100 | – | – | – | – | –
c1ccc(Nc2nnc(-c3nsc4ccccc34)o2)cc1 | > 100 | > 100 | 45.2 | > 100 µM | > 100 | – | > 100 | – | > 100 | – | – | – | > 100 | – | – | – | – | –
COc1ccc(C(O)/C(=C/n2ccnc2)c2ccccc2)cc1OC (stereo unspecified) | > 100 | > 100 | > 100 | > 100 µM | > 100 | > 100 | > 100 | – | > 100 | – | – | – | > 100 | – | – | – | – | –
OCCO[P+]1(OCCO)n2c3ccc2C(c2ccccc2)=C2C=CC(=N2)C(c2ccccc2)=c2ccc(n21)=C(c1ccccc1)C1=NC(=C3c2ccccc2)C=C1 | 0.701 | 1.04 | 1.34 | 2.17 µM | 0.17 | 0.513 | – | 2.09 | 1.25 | – | – | – | 0.294 | – | – | – | – | –
CC(C)(C)OC(=O)NCC(=O)N1CCCN(C(=O)CNC(=O)OC(C)(C)C)CC1 | > 100 | > 100 | > 100 | > 100 µM | > 100 | > 100 | – | > 100 | > 100 | – | – | – | – | – | – | – | – | –
Cc1n(CC(=O)c2ccccc2)nc2sc(N)n[n+]12 | > 100 | > 100 | > 100 | > 100 µM | > 100 | > 100 | > 100 | > 100 | > 100 | – | – | – | – | – | – | – | – | –
CCCCCCCCC/C=C1\CC(CO)(COC(=O)c2ccccc2)OC1=O (stereo unspecified) | > 100 | 47.6 | 43.1 | > 100 µM | – | 39 | – | 72.6 | 39.5 | – | – | – | > 100 | – | – | – | – | –
O=C(/C=C/c1ccccc1O)/C=C/c1ccccc1O | > 100 | 3.08 | 1.26 | 7.7 µM | 5.08 | 3.89 | 3.57 | – | 2.89 | – | – | – | > 100 | – | – | – | – | –
CCCCCCOc1ccc(NC2=C(Cl)C(=O)c3ncccc3C2=O)cc1 | > 10 | 3.18 | 6.25 | – | > 10 | 3.59 | 3.3 | 4.03 | 3.08 | – | – | – | – | – | – | – | – | –
N#Cc1c(N2CCN(c3ccc([N+](=O)[O-])cc3)CC2)[n+](=O)c2ccc(Cl)cc2n1[O-] | 8.52 | 3.7 | – | 9.52 µM | > 22.9 | > 28.3 | 4.37 | – | 5.81 | – | – | – | – | – | – | – | – | –
NC(=O)CS(=O)CC(N)C(=O)O (stereo unspecified) | > 100 | > 100 | > 100 | > 100 µM | > 100 | > 100 | – | > 100 | > 100 | – | – | – | > 100 | – | – | – | – | –

SMILES | TGI [1] [µM] | TGI [2] [µM] | TGI [3] [µM] | TGI [4] | TGI [5] [µM] | TGI [6] [µM] | TGI [7] [µM] | TGI [8] [µM] | TGI [9] [µM] | GI50 [3] [µM] | GI50 [4] [µM] | GI50 [5] [µM] | TGI [10] [µM] | GI50 [1] [µM] | GI50 [2] [µM] | GI50 [6] [µM] | GI50 [10] [µM] | GI50 [8] [µM]
COc1ccc(C2c3cc4c(cc3OC(N3CCCCC3)C2C)OCO4)cc1 (stereo unspecified) | > 100 | > 100 | > 100 | – | > 100 | > 100 | > 100 | > 100 | – | – | – | – | > 100 | – | – | – | – | –
CC(=O)Nc1ccc(-c2nnc(SCC(=O)Nc3ccccc3C)o2)cc1 | > 100 | > 100 | > 100 | > 100 µM | > 100 | > 100 | > 100 | – | > 100 | – | – | – | > 100 | – | – | – | – | –
Nc1nc2cc(CNc3ccc(C(=O)NC(CCC(=O)O)C(=O)O)cc3)ccc2nc1-c1ccccc1 (stereo unspecified) | > 10 | > 10 | > 10 | > 10 µM | > 10 | > 10 | > 10 | > 10 | > 10 | – | – | – | – | – | – | – | – | –
O=C(C#Cc1cn(C2CC(O)C(CO)O2)c(=O)[nH]c1=O)c1ccccc1 (stereo unspecified) | – | > 100 | 37.7 | > 100 µM | > 100 | > 100 | 52.5 | 36.7 | > 100 | – | – | – | > 100 | – | – | – | – | –
CN1CC2CC(C1)c1cccc(=O)n1C2 (stereo unspecified) | – | > 100 | > 100 | > 100 µM | > 100 | > 100 | – | > 100 | > 100 | – | – | – | – | – | – | – | – | –
COc1nc2[nH]ccc2c(=O)n1C | > 100 | > 100 | – | 41.5 µM | > 100 | > 100 | > 100 | – | > 100 | – | – | – | > 100 | – | – | – | – | –
CC(=O)OCC1OC(c2nnc(C)o2)=CC(OC(C)=O)C1OC(C)=O (stereo unspecified) | > 100 | > 100 | > 100 | > 100 µM | > 100 | > 100 | > 100 | – | > 100 | – | – | – | > 100 | – | – | – | – | –
CC(=O)NC1=C(C)C(=O)c2c(nc3n2CC[C@H]3OC(C)=O)C1=O | – | 9.11 | 1.4 | 3 µM | 6.75 | 5.49 | 4.38 | 1.37 | 3.22 | – | – | – | – | – | – | – | – | –
COc1cc(-c2nc3nc(N4CCN(C)CC4)ccc3[nH]2)c(OC)c2[nH]c(COC(C)=O)nc12 | – | 99.3 | – | > 100 µM | > 100 | > 100 | 35.4 | > 100 | 46.5 | – | – | – | > 100 | – | – | – | – | –
O=C1C[C@H](c2ccccc2)C2(C(=O)c3ccccc3C2=O)[C@H](c2ccccc2)C1 | > 100 | > 100 | > 100 | > 100 µM | > 100 | > 100 | – | > 100 | > 100 | – | – | – | > 100 | – | – | – | – | –
O=C1/C(=C/c2ccco2)NC(=S)N1CN1CCOCC1 | > 100 | – | > 100 | > 100 µM | > 100 | > 100 | – | – | > 100 | – | – | – | > 100 | – | – | – | – | –
COc1ccc2c(c1)-c1oc3ccccc3c(=O)c1CO2 | > 100 | – | > 100 | – | > 100 | > 100 | > 100 | 68.5 | > 100 | – | – | – | – | – | – | – | – | –
COc1cc(C2S/C(=C/c3ccccc3)C(=O)N2c2cccc([N+](=O)[O-])c2)cc(OC)c1OC (stereo unspecified) | > 100 | – | – | > 100 µM | > 100 | > 100 | – | 21.4 | > 100 | – | – | – | > 100 | – | – | – | – | –
Clc1ncnc2c1ncn2CCCCCCCCCCCCn1cnc2c(Cl)ncnc21 | 42.9 | 31.8 | 23.3 | 23.3 µM | 23.8 | 28.8 | 27.8 | – | 23.7 | – | – | – | 3.82 | – | – | – | – | –
CC(C)CCC[C@@H](C)[C@H]1CCC2C3=CCC4C(=O)C=CC(=O)C4C3CC[C@@]21C (stereo partly specified) | > 100 | 2.59 | – | 0.498 µM | – | 0.576 | – | – | – | 0.348 | 0.159 | 0.0726 | > 100 | 0.373 | 0.324 | 0.172 | 0.263 | 0.174
Cc1cc([N+](=O)[O-])ccc1N=NC(=O)NNc1ccc([N+](=O)[O-])cc1C | 37.5 | 33.4 | 34.4 | 31.9 µM | 30 | – | – | 28.9 | 32.9 | – | – | – | 47.6 | – | – | – | – | –
CC(C)(NC1=NCCO1)c1ccccc1 | > 100 | > 100 | > 100 | > 100 µM | > 100 | > 100 | > 100 | > 100 | > 100 | – | – | – | – | – | – | – | – | –
